Laboratory results taken from patent publication US20100172944A1, “COMBINATION OF MONOSACCHARIDES WITH SUNSCREENS AND USE THEREOF” (L'OREAL, priority 2008, published 2010).

Assays:
[1] = system: dermal fibroblasts of the reconstructed skin; assay: Proliferation of fibroblasts in whole reconstructed skin (propidium iodide nuclei count on frozen sections); assay type: cell-based, human; conditions: 5 mM; within 48 hours of treatment; vs control skin
Source text: Rhamnose was studied on a model of whole reconstructed skin in order to measure its anti-ageing efficacy on the dermal compartment.
Briefly, the model of reconstructed skin used is that described by Bell et al. (Bell E. et al., The reconstitution of living skin, J. Invest. Dermatol., 1983, July; 81): it includes a dermal equivalent on which is reconstructed a multistratified epidermis; the dermal equivalent is manufactured from acid-soluble collagen, culture medium containing serum and normal adult human fibroblasts. After 5 days of shrinkage, this equivalent is inoculated with keratinocytes and then cultured for 6 days in immersion and for 7 days in emersion in order to obtain a multistratified and differentiated epidermis having a horny layer.
The reconstructed skin is treated with 5 mM rhamnose for 2 days and 5 days in the culture medium; after the treatment, the reconstructed skins are included in Tissue Tek in order to produce frozen sections 7 μm thick with a cryostat. […] Three frozen sections are prepared at random on each reconstructed skin; on each section, two microscopic fields (25× objective lens) are analysed by fluorescence microscopy and photographed. The dermal fibroblasts are thus counted for each reconstructed skin on six images in total representing the six microscopic fields considered. […]

[2] = system: type I procollagen; assay: Synthesis of procollagen 1 in reconstructed skin (indirect immunofluorescence); assay type: cell-based, human; conditions: for procollagen 1 synthesis: reconstructed skin
Method: Conventional detection via indirect immunofluorescence of type I procollagen in the dermis of the reconstructed skin was also performed on other series of frozen sections (anti-procoll 1 antibody (MAB 1912 Millipore)+FTIC-coupled conjugate (112-095-068 Jackson Immunoresearch)). In order to obtain bearings within the cutaneous architecture during the microscopic examination of the sections, the cell nuclei of the keratinocytes and fibroblasts are localized by staining them with propidium iodide, as described above. Three frozen sections are prepared at random on each reconstructed skin and on each section, and two microscopic fields (25× objective lens) are analysed by fluorescence microscopy and photographed. The levels of fluorescence proportional to the amount of type I procollagen are compared between the control skin and the skin treated with rhamnose.

[3] = system: keratinocytes (HaCat line); assay: Proliferation of keratinocytes in culture medium deficient in growth factors (Cyquant, Nile red, XTT markers); assay type: cell-based; conditions: medium depleted in growth factors; compared with untreated control
Method: The keratinocytes (HaCat line) are cultured under two conditions: whole defined culture medium (standard condition) and culture medium deficient in growth factors. This deficient medium gives rise to a controlled delay in cell proliferation. Under these conditions, it is then possible to measure the effects of compounds capable of compensating for the deficiency in growth factors of the culture medium and thus of relaunching the cell multiplication and/or of stimulating cell metabolism.
The keratinocyte proliferation is measured by means of three markers on the same cell population: the level of DNA, which is proportional to the number of cells (Cyquant probe), the level of constituent polar lipids of cell membranes (Nile red probe) and the mitochondrial respiration, which reflects the general cell metabolism (XTT probe).

C[C@H](O)[C@H](O)[C@@H](O)[C@@H](O)C=O [rhamnose, Rhamnose]
growth of the dermal fibroblasts of the reconstructed skin [1]: induces stimulation of growth
green fluorescence proportional to the amount of type I procollagen ([2]; 1 mM for 120 hours, compared with control skin (FIG. 4)): marked increase in green fluorescence
procollagen 1 synthesis ([2]; 1 mM): stimulation of procollagen 1 synthesis
procollagen 1 synthesis ([2]; 5 mM): stimulation of procollagen 1 synthesis
keratinocyte proliferation [3]: activate keratinocyte proliferation
